Values after ≈ are worked out from the molar mass of the structure shown. Active and inactive are the calls of the source. The rule behind the calls is not given here.
How the values were obtained:
[1] = Cytotoxicity against mouse STC-1 cells assessed as reduction in cell viability at 5 to 50 ug/ml after 2 to 24 hrs by MTT assay; assay type: toxicity, cell-based; settings: dose lower 5 µg/ml, time lower 2 hrs, dose upper 50 µg/ml, time upper 24 hrs
[2] = tested on: STC-1; test: Anti-obesity activity in mouse STC-1 cells assessed as increase in Tas2r138 mRNA expression level at 5 to 10 ug/ml incubated for 2 hrs by RT-qPCR analysis; assay type: functional, cell-based; settings: dose 5-10 µg/ml
[3] = tested on: STC-1; test: Anti-obesity activity in mouse STC-1 cells assessed as increase in […] mRNA expression level at 5 to 10 ug/ml incubated for 2 hrs by RT-qPCR analysis; assay type: functional, cell-based; settings: dose 5-10 µg/ml
[4] = tested on: STC-1; test: Agonist activity at Tas2r in mouse STC-1 cells assessed as increase in intracellular calcium level measured every 10 sec for 5 mins by Fluo-4-AM dye based fluorescence analysis; assay type: cell-based; settings: filed as agonist, dose 5-10 µg/ml
[5] = tested on: STC-1; test: Anti-obesity activity in mouse STC-1 cells assessed as increase in GLP-1 secretion at 5 to 10 ug/ml incubated for 120 mins by ELISA; assay type: functional, cell-based; settings: dose 5-10 µg/ml
[6] = Anti-obesity activity in mouse STC-1 cells assessed as increase in GLP-1 secretion by measuring fold change at 5 to 10 ug/ml incubated for 120 mins by ELISA; assay type: functional; settings: dose 5-10 µg/ml, 2 h
[7] = Cytotoxicity against mouse STC-1 cells assessed as reduction in cell viability after 24 hrs by MTT assay; assay type: toxicity, cell-based
[8] = Anti-obesity activity in mouse STC-1 cells assessed as GLP-1 secretion at 5 ug/ml incubated for 120 mins by ELISA (reference value: 13.29 +/- 1.3 pg/ml); assay type: functional; settings: dose 5 µg/ml, 2 h
[9] = Anti-obesity activity in mouse STC-1 cells assessed as GLP-1 secretion at 10 ug/ml incubated for 120 mins by ELISA (reference value: 13.29 +/- 1.3 pg/ml); assay type: functional; settings: dose 10 µg/ml, 2 h
[10] = Cytotoxicity against mouse STC-1 cells assessed as reduction in cell viability at 50 ug/ml after 2 to 24 hrs by MTT assay; assay type: toxicity, cell-based; settings: time 2-24 hrs, dose 50 µg/ml
[11] = Cytotoxicity against mouse STC-1 cells assessed as cell viability at 10 ug/ml after 24 hrs by MTT assay relative to control; assay type: toxicity, cell-based; settings: at 10 µg/mL, read-out: Activity
[12] = Cytotoxicity against mouse STC-1 cells assessed as reduction in cell viability after 2 hrs by MTT assay; assay type: toxicity, cell-based
[13] = tested on: STC-1; test: Anti-obesity activity in mouse STC-1 cells assessed as increase in CCK secretion at 10 ug/ml incubated for 120 mins by EIA; assay type: functional, cell-based; settings: dose 10.0 µg/ml
[14] = tested on: STC-1; test: Anti-obesity activity in mouse STC-1 cells assessed as increase in GLP-1 secretion incubated for 120 mins by ELISA; assay type: functional, cell-based; settings: dose 5-10 µg/ml
[15] = tested on: STC-1; test: Anti-obesity activity in mouse STC-1 cells assessed as increase in Tas2r119 mRNA expression level at 5 to 10 ug/ml incubated for 2 hrs by RT-qPCR analysis; assay type: functional, cell-based; settings: dose 5-10 µg/ml
[16] = Cytotoxicity against mouse STC-1 cells assessed as reduction in cell viability at 5 to 10 ug/ml after 2 to 24 hrs by MTT assay; assay type: toxicity, cell-based; settings: dose lower 5 µg/ml, time lower 2 hrs, dose upper 10 µg/ml, time upper 24 hrs
[17] = tested on: STC-1; test: Anti-obesity activity in mouse STC-1 cells assessed as increase in Tas2r105 mRNA expression level at 5 to 10 ug/ml incubated for 2 hrs by RT-qPCR analysis; assay type: functional, cell-based; settings: dose 5-10 µg/ml
[18] = tested on: STC-1; test: Anti-obesity activity in mouse STC-1 cells assessed as increase in GLP-1 secretion at 10 ug/ml incubated for 120 mins by ELISA; assay type: functional, cell-based; settings: dose 10.0 µg/ml
[19] = tested on: STC-1; test: Anti-obesity activity in mouse STC-1 cells assessed as increase in Tas2r120 mRNA expression level at 5 to 10 ug/ml incubated for 2 hrs by RT-qPCR analysis; assay type: functional, cell-based; settings: dose 5-10 µg/ml

Row | SMILES | Activity [1] | Activity [2] | Activity [3] | Activity [4] | Activity [5] | fold change (FC) [6] | IC50 at 24 h [7] | Activity [8] | Activity [9] | Activity [10] | viability at 24 h, 10 ug/ml [11] | IC50 at 2 h [12] | Activity [13] | Activity [14] | Activity [15] | Activity [16] | Activity [17] | Activity [18] | Activity [19]
1 | CC(C)=CCC1=C(O)[C@@](O)(CC=C(C)C)C(=O)C(C(=O)C(C)C)=C1O | Non-Toxic | Active | Active | Dose-Dependent Effect | inactive | – | – | – | – | – | – | – | – | – | – | – | – | – | –
2 | COc1cc(O)c(CC=C(C)C)c(O)c1C(=O)/C=C/c1ccc(O)cc1 [XANTHOHUMOL] | – | Active | – | Dose-Dependent Effect | – | ~2 | 8 µg/mL (≈ 22.6 µM) | 20.39 pg/mL | 28.39 pg/mL | Toxic | 35% | 35.3 µg/mL (≈ 99.6 µM) | Active | Dose-Dependent Effect | – | – | – | – | –
3 | CC(C)=CCC1=C(O)C(C(=O)C(C)C)=C(O)C(CC=C(C)C)(CC=C(C)C)C1=O | – | Active | Active | Dose-Dependent Effect | – | – | – | – | – | – | – | – | Active | – | Active | Non-Toxic | Active | Active | Active

— ChEMBL document CHEMBL5584312, “Insight into the Interaction of Humulus lupulus L. Specialized Metabolites and Gastrointestinal Bitter Taste Receptors: In Vitro Study in STC-1 Cells and Molecular Docking” (J Nat Prod, 2024)
